Data on 3 compounds can be found in patent US20110293537A1, “FORMULATIONS WITH ANTI-NEOPLASTIC ACTIVITY” (priority 2008, published 2011).

For series [1] the following is noted: cited from earlier work.
For series [2] the following is noted: cited from earlier work. The source holds these as a separate data set.
Series [3] concerns DMBA-induced lesions (OPL, ExL) of hamster buccal pouch. The note with it: in vivo.
Series [4] has as its system buccal pouches and principal organs. As to the kind of experiment: Local toxicity of empty vehicles without DMBA induction. The class given is in vivo, Syrian golden hamsters (Mesocricetus auratus). The procedure: The last thirty animals were randomly divided in three further groups (n=10 each) to evaluate the local toxicity of the empty vehicles (TE, TC and TM) without DMBA carcinogenesis induction. Topical application of EtOH, cream and mouthwash was performed in the same manner before described.
In vivo side effects were investigated after 14 weeks of E, C and M topical applications on right buccal pouches on three groups of animals (TE, TC and TM respectively).

The conditions of series [5]: cited from earlier work. This is another data set of the same source.
The test system of the next series is HCPC-I cells. Particulars: in vitro, FIG. 2.
[6] abbreviates: 14 weeks topical application, no DMBA.

Read-outs that look alike come from different tables or passages of the source.

Method for HCPC-I cells: Cells were harvested every 3-4 days with 0.25% trypsin solution (from Sigma). […] HCPC-I cells were dispensed at a density of 5×10^2/100 μl for each well in RPMI-1640 supplemented with 10% FCS. […] After 72 h of incubation, cells were supplemented with 10 μl of a stock solution (5 mg/ml) of MTT (Sigma) in phosphate buffer saline (PBS). At least 3 h later, culture medium was replaced with 100 μl of dimethyl-sulfoxide (DMSO, Sigma) and plates read at 560 nm with a “Microplate Reader model 450” (BioRad). Cell viability was expressed as average percentage of absorbance in treated cells versus control (culture medium alone).

What is called pKa is the negative logarithm of the acid dissociation constant. `Oc1ccc(/C=C/c2cc(O)cc(O)c2)cc1` [RV, 3,4′,5-trihydroxy-trans-stilbene]: the pKa is reported as 10 in series [1] (3-OH group), 9.3 in series [1] (4′-OH group) and 10.6 in series [1] (5-OH group). Besides, the oral bioavailability entry in series [2] (human) is recorded as “very poor”. Further, in series [2] (in vivo), the initial half-life is 8 to 14 min. The “tolerance of topical application on oral mucosa” value in series [3] is “good tolerance”.

In the case of `CCO` [EtOH, ethanol], in series [4] (setting [6]), the “gross observations of pouches and principal organs” value was “did not reveal any macroscopic alterations”; the “histological HE analysis, local adverse reactions” value is “absence of local adverse reactions”.

As to hydroxypropyl-β-cyclodextrin [HPβCD], the “toxic signs or adverse effects in chronic treated hamsters” value in series [4] (in vivo concentrations) is “did not display any toxic signs or adverse effects”. Also, in series [5] (almost 14 days), the “dose with main adverse event (soft stools and diarrhea)” value is 16-24 g HPβCD/day. The oral toxicity result in series [5] (orally administered) was “practically non-toxic”. In the series on HCPC-I cells, the “inhibition of cell growth by HPβCD” value is “inhibition of cell growth only at extremely high concentrations”.
